From PubChem BioAssay AID328 (DTP/NCI, 2004)
“And” between values parts separate entries of the source, which are not always exact repeats. Equal values may be shown once. Inconclusive results and toxic doses are left out.

System: BDF1 mice, P388 leukemia ip, median survival T/C
Assay: NCI In Vivo Anticancer Drug Screen. Data for tumor model P388 Leukemia (intraperitoneal) in B6D2F1 (BDF1) mice
Conditions: endpoint: median survival time, higher = longer survival
Summary of the method: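 Transplantable tumour in mice; compound vs vehicle dosing; survival scored; ratio of treated to control reported.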

[1] = dose: 25.0 mg/kg/injection, schedule: Q01DX009 (ip), vehicle: saline with Tween-80
[2] = dose: 100.0 mg/kg/injection, schedule: Q04DX003 (ip), vehicle: Klucel (hydroxypropylcellulose) (HPC)
[3] = dose: 200.0 mg/kg/injection, schedule: Q04DX003 (ip), vehicle: Klucel (hydroxypropylcellulose) (HPC)
[4] = dose: 400.0 mg/kg/injection, schedule: Q04DX003 (ip), vehicle: Klucel (hydroxypropylcellulose) (HPC)
[5] = dose: 100.0 mg/kg/injection, schedule: Q04DX003 (ip), vehicle: saline
[6] = dose: 50.0 mg/kg/injection, schedule: Q01DX009 (ip), vehicle: saline with Tween-80
[7] = dose: 100.0 mg/kg/injection, schedule: Q01DX009 (ip), vehicle: saline with Tween-80
[8] = dose: 100.0 mg/kg/injection, schedule: Q04DX003 (ip), vehicle: saline with Tween-80
[9] = dose: 200.0 mg/kg/injection, schedule: Q04DX003 (ip), vehicle: saline with Tween-80
[10] = dose: 400.0 mg/kg/injection, schedule: Q04DX003 (ip), vehicle: saline with Tween-80
[11] = dose: 200.0 mg/kg/injection, schedule: Q01DX009 (ip), vehicle: saline with Tween-80

## C/C=C1/C[C@@H](C)[C@@](C)(O)C(=O)OCC2=CC[N+]3([O-])CC[C@@H](OC1=O)[C@@H]23 (some centres not stated)
dose: 10.0 mg/kg/injection, schedule: Q01DX010 (ip), vehicle: saline
  T/C: 109 % of control
dose: 20.0 mg/kg/injection, schedule: Q01DX010 (ip), vehicle: saline
  T/C: 104 % of control
dose: 40.0 mg/kg/injection, schedule: Q01DX010 (ip), vehicle: saline
  T/C: 113 % of control
dose: 80.0 mg/kg/injection, schedule: Q01DX010 (ip), vehicle: saline
  T/C: 109 % of control

## C[n+]1c2ccccc2cc2ccccc21
[1]
  T/C: 118 % of control

## O=C(OC1COC(Br)C(OC(=O)c2ccccc2)C1OC(=O)c1ccccc1)c1ccccc1 (configuration not stated)
[2]
  T/C: 100 % of control
[3]
  T/C: 95 % of control
[4]
  T/C: 100 % of control

## c1cncc(-c2ncnc3c2Cc2ccccc2-3)c1
dose: 75.0 mg/kg/injection, schedule: Q01DX009 (ip), vehicle: Klucel (hydroxypropylcellulose) (HPC)
  T/C: 100 % of control
dose: 150.0 mg/kg/injection, schedule: Q01DX009 (ip), vehicle: Klucel (hydroxypropylcellulose) (HPC)
  T/C: 113 % of control

## CN(C)P1(=O)OCCN1N (configuration not stated)
dose: 50.0 mg/kg/injection, schedule: Q04DX003 (ip), vehicle: saline
  T/C: 109 % of control
[5]
  T/C: 109 % of control
dose: 200.0 mg/kg/injection, schedule: Q04DX003 (ip), vehicle: saline
  T/C: 104 % of control

## O=C(Nc1ncc([N+](=O)[O-])s1)c1cccc([N+](=O)[O-])c1
dose: 6.25 mg/kg/injection, schedule: Q01DX009 (ip), vehicle: saline with Tween-80
  T/C: 99 % of control
dose: 12.5 mg/kg/injection, schedule: Q01DX009 (ip), vehicle: saline with Tween-80
  T/C: 94 % of control
[1]
  T/C: 93 % of control

## S=P(N1CC1)(N1CC1)N1CC1
dose: 0.19 mg/kg/injection, schedule: Q01DX009 (ip), vehicle: saline
  T/C: 114 % of control
dose: 0.75 mg/kg/injection, schedule: Q01DX010 (ip), vehicle: saline
  T/C: 90 % of control
dose: 1.0 mg/kg/injection, schedule: Q01DX001 (oral), vehicle: saline
  T/C: 109 % of control
dose: 1.5 mg/kg/injection, schedule: Q01DX009 (ip), vehicle: saline
  T/C: 121 % of control
dose: 1.5 mg/kg/injection, schedule: Q01DX010 (ip), vehicle: saline
  T/C: 90 % of control and 109 % of control
dose: 3.0 mg/kg/injection, schedule: Q01DX009 (ip), vehicle: saline
  T/C: 112 % of control
dose: 6.0 mg/kg/injection, schedule: Q01DX009 (ip), vehicle: saline
  T/C: 91 % of control and 93 % of control and 206 % of control
dose: 6.0 mg/kg/injection, schedule: Q01DX010 (ip), vehicle: saline
  T/C: 109 % of control and 110 % of control
dose: 12.0 mg/kg/injection, schedule: Q01DX009 (ip), vehicle: saline
  T/C: 111 % of control

## C=CCNC(=S)Nc1cc(Cl)ccc1OC
[2]
  T/C: 109 % of control
[3]
  T/C: 95 % of control
[4]
  T/C: 95 % of control

## NC(=O)c1cn(C2OC(CO)C(O)C2O)c2ncn3ccnc3c12 (configuration not stated)
dose: 6.25 mg/kg/injection, schedule: Q04DX003 (ip), vehicle: saline
  T/C: 118 % of control
dose: 25.0 mg/kg/injection, schedule: Q04DX003 (ip), vehicle: saline
  T/C: 115 % of control
[5]
  T/C: 118 % of control

## C=CCCCCCCCCC(=O)NCCCN1CCOCC1
[1]
  T/C: 100 % of control
[6]
  T/C: 109 % of control
[7]
  T/C: 100 % of control

## O=C(CNC(c1ccccc1)(c1ccccc1)c1ccccc1)OC(c1ccccc1)c1ccccc1
[8]
  T/C: 104 % of control
[9]
  T/C: 104 % of control
[10]
  T/C: 100 % of control

## O=C(Nc1ccc(F)cc1)C(F)(F)F
[6]
  T/C: 106 % of control
[7]
  T/C: 98 % of control
[11]
  T/C: 105 % of control

## c1ccc2c(c1)[nH]c1c2c[n+]2c3c(cccc13)CCC2
dose: 3.13 mg/kg/injection, schedule: Q01DX009 (ip), vehicle: saline
  T/C: 119 % of control
dose: 3.66 mg/kg/injection, schedule: Q01DX009 (ip), vehicle: saline
  T/C: 110 % of control
dose: 5.49 mg/kg/injection, schedule: Q01DX009 (ip), vehicle: saline
  T/C: 105 % of control
dose: 6.25 mg/kg/injection, schedule: Q01DX009 (ip), vehicle: saline
  T/C: 104 % of control

## COc1cc(Cl)c(CC(=O)c2c[nH]c3ccccc23)cc1OC
[6]
  T/C: 103 % of control
[11]
  T/C: 99 % of control

## Cc1ccc(C)c(-n2nnc3ccccc3c2=O)c1
[7]
  T/C: 100 % of control
[8]
  T/C: 100 % of control
[11]
  T/C: 86 % of control
[9]
  T/C: 90 % of control
dose: 400.0 mg/kg/injection, schedule: Q01DX009 (ip), vehicle: saline with Tween-80
  T/C: 100 % of control
[10]
  T/C: 100 % of control
